In US20230190689A1, “METHODS AND COMPOSITIONS FOR INDUCING BROWN ADIPOGENESIS” (ENERGESIS PHARMACEUTICALS, INC., priority 2020, published 2023):

What was measured:
[1] = test system: CD34+ brown adipocyte progenitor cells; assay: Multiplexed TaqMan real-time PCR of UCP1 and PPARγ2 mRNA (normalized to cyclophilin A) to quantify differentiation of CD34+ cells into brown adipocytes; format: cell-based, human; conditions: for differentiation of brown adipocyte progenitor cells into brown adipocytes, as indicated by expression of UCP1 and PPARγ2: in vitro, first screen at 10 μM, actives retested at 1 nM to 50 μM
From the text: A robust method, previously disclosed, was used for detection of CD34+ cell differentiation into brown adipocytes by simultaneously quantifying mRNA species corresponding to the brown adipocyte marker UCP1, the adipocyte marker PPARγ2, and the “housekeeping” gene cyclophilin A which was used as the internal control.
This method permits analysis of a large number of samples to identify agents that enhance the differentiation of CD34+ cells into brown adipocytes. When differentiated into brown adipocytes, CD34+ cells express much higher levels of UCP1 and PPARγ2 mRNA for a given level of cyclophilin A. UCP1 and PPARγ2 mRNA levels normalized to cyclophilin A mRNA levels give an indication of the level of differentiation of the CD34+ cells into brown adipocytes, independent of the total number of cells in the sample.
Quantification of UCP1, PPARγ2 and cyclophilin A mRNA by multiplexed TaqMan real-time PCR was thus used to quantify differentiation of the CD34+ cells into brown adipocytes.
UCP1 is the key protein in brown adipocytes responsible for uncoupled respiration and is also highly specific for brown adipocyte differentiation. It is expressed exclusively by fully differentiated brown adipocytes and not by the CD34+ progenitor cells. We used a real-time semi-quantitative RT PCR-based assay for detection of UCP1 expression, in order to screen for brown adipocyte recruiters. […] The assay has the added advantage of allowing light microscopic visualization of the distinct morphological changes accompanying differentiation into brown adipocytes. This serves as further confirmation of differentiation.
(§1) Cells were seeded at 10,000 per cm^2 (48-well tissue culture, Chemglass #CLS-3500-048), cultured until confluency (1-4 days) at 37° C. in Endothelial cell growth medium-2 (EGM2) (BulletKit growth medium, Lonza #CC-3162) and until differentiation (6-12 more days). After 1-4 days in EGM2 media the cells were incubated with test agents (or positive controls) for 2-3 days (from day −3 or −2 to day 0). Rosiglitazone (1 μM) and rhBMP7 (6.3 nM) were used as reference agents (positive controls). Then (on day 0) the culture media (containing the test agents or positive controls) was removed, and minimal adipogenic medium (MDM) was added and the cells were left to differentiate of 6-12 days. The MDM media is a modification of the adipogenic media described by Rodriguez et al., and contains: DMEM/Ham's F-12 50/50 Mix (3.151 g/1, 17.5 mM D-glucose, 3.651 g/l L-glutamine) (Cellgro #10-090-CV), 5 μg/ml (0.86 μM) insulin, 1 μM dexamethasone, 100 μM 3-isobutyl-1-methylxanthine, 0.2 nM 3,3′,5-triiodo-L-thyronine, 10 μg/ml (127 nM) transferrin, and 1% penicillin-streptomycin. Adipocyte scores were determined by light microscopy and defined as the number of cells, on a per well basis, that contain multilocular lipid droplets, at the end of the differentiation of the cells, approximately 6 to 12 days following the end of compound treatment and switch into MDM media.
Total RNA was prepared from cells using PureLink RNA Isolation Kit (Invitrogen #12183-016). Alternatively, cells were simply lyzed by freezing (−80° C.). First strand cDNA were synthesized using the High Capacity cDNA Reverse Transcription kit (Applied Biosystems, Foster City, Calif.) and random primers.
Quantitative real-time PCR was performed using an Applied Biosystems StepOnePlus™ instrument, TaqMan Gene Expression Master Mix (Applied Biosystems #4369016), and custom TaqMan gene expression probes and primers for human uncoupling protein-1 “UCP1” (GenBank NM_021833) and for human peptidylprolyl isomerase A “cyclophilin A” (GenBank NM_021130).
Cyclophilin A was used as a control to account for any variations due to the efficiency of reverse transcription. Arbitrary units were determined by normalizing target mRNA levels to cyclophilin A mRNA levels (based on Cts).

CD34+ cells [2] = assay: Light microscopy of CD34+ cells for brown adipocyte differentiation (multilocular lipid-containing cells); format: cell-based, human; conditions: CD34+ cells 6 days following the end of compound treatment and switch into MDM media
Protocol: as §1
Pictures of cells were taken using a hand-held digital camera (Nikon Coolpix 950) and inverted microscope (Nikon TMS) used for cell culture observations; images were optimized using Paint.net version 4.0 functions for Auto-Level Brightness and Contrast.

DIO mice = assay: DIO mouse study of metabolic health, once-daily oral gavage for 28 to 56 days; format: in vivo, C57Bl/6 mice; conditions: oral gavage once a day, bezafibrate 60 mg/kg, oxaprozin 50 mg/kg, vs vehicle
Protocol: Obesity and insulin resistance, an early stage in the development of type 2 diabetes (or pre-diabetes), was induced in C57Bl/6 mice by feeding the mice with a high fat diet (Research diet, Cat #D12492, 60/a fat kcal) for 12 weeks starting at 6 weeks of age. The mice were maintained at 22-23° C. with abundant bedding material, maintaining the animals in an environmental temperature close to their thermoneutrality, starting 2 weeks prior to the dosing period and for the full dosing period with a 12 h/12 h light/dark cycle.
Mice were dosed once per day by oral gavage (200 μl per mouse), first for 3 days with the vehicle (PBS+0.5% CMC+0.1% Tween-80) as acclimation for running into the study, then with either vehicle alone or testing material dissolved in the vehicle for […] (4 to 8 weeks).
Body weight was recorded every 3 days, body composition (fat and lean mass with EchoMRI) was assessed at the end of the study (University of Cincinnati Mouse Metabolic Phenotyping Center), blood glucose level (measured with a glucometer) was monitored 3-5 days before (baseline) and at the end of the dosing period.
At the end of the dosing period, animals were fasted for 6 hours and euthanized by CO2, blood was collected, and plasma was isolated and saved at −20° C. Plasma glucose, insulin and leptin levels were assessed 3-5 days before (baseline) and at the end of the dosing period (mice were fasted for 6 hours before all plasma collection) (University of Cincinnati Mouse Metabolic Phenotyping Center). Insulin sensitivity was determined using the homeostasis model assessment of insulin resistance (HOMA-IR). HOMA-IR=(plasma insulin [microIU/ml] x plasma glucose [mM])/22.5.
The mice were maintained on a high fat diet (60% calories from fat) throughout the study. An overnight fast was performed the last night of the study in preparation for glucose tolerance testing.

CD34+ cells [3] = assay: Quantification of UCP1 protein by fluorescence immunohistochemistry (IHC); format: cell-based, human
Protocol: Culturing and differentiation of CD34+ cells into brown adipocytes were performed using adipogenic differentiation medium lacking (Minimal Differentiation Medium, MDM) or containing 1 μM rosiglitazone (Reference Differentiation Medium, RDM). After 15 days of differentiation cells were fixed with 4% Paraformaldehyde PBS pH 7.4, and incubated with a UCP1 antibody (Abcam ab23841) and Alexafluor 488 goat anti-rabbit antibody to quantify relative UCP1 levels (green) according to standard protocols. Prior to fixation of cells, nuclei were labeled with 5 μM DAPI (blue) for 10 minutes. Each treatment condition was evaluated in triplicate in a 96-well plate corresponding to approximately 360-480 cells for each data point in total. The InCell 1000 Developer Toolbox software was used to develop an automated cell detection script to measure UCP1 signal intensity, using the nuclei and cytoplasm detection algorithms. As a readout, total intensity of UCP1 signal within the cell was used, normalized to cell number.

## CC(C)(Oc1ccc(CCNC(=O)c2ccc(Cl)cc2)cc1)C(=O)O [bezafibrate, 2-(4-{2-[(4-chlorobenzoyl)amino]ethyl}phenoxy)−2-methylpropanoic acid]
[1]
  differentiation of brown adipocyte progenitor cells into brown adipocytes, as indicated by expression of UCP1 and PPARγ2: promote the differentiation of brown adipocyte progenitor cells into brown adipocytes
CD34+ cells [2]
  brown adipocyte formation by light microscopy: promote brown adipocyte formation
DIO mice; MRI
  body fat mass: significant decreases
DIO mice
  body weight: significant decreases
  glycemia: significant decreases
  insulin resistance index (HOMA-IR): significant decreases
  plasma insulin: significant decreases
  plasma leptin: significant decreases

## O=C(O)c1cc(-c2ccc(F)cc2F)ccc1O [diflunisal, Diflunisal]
[1]
  differentiation of brown adipocyte progenitor cells into brown adipocytes, as indicated by expression of UCP1 and PPARγ2: promote the differentiation of brown adipocyte progenitor cells into brown adipocytes
CD34+ cells [2]
  brown adipocyte formation by light microscopy: promote brown adipocyte formation
CD34+ cells [3]
  agents identified by quantification of UCP1 protein by fluorescence IHC: identified using this technique

## CCCN(CCC)S(=O)(=O)c1ccc(C(=O)O)cc1 [probenecid, Probenecid]
[1]
  differentiation of brown adipocyte progenitor cells into brown adipocytes, as indicated by expression of UCP1 and PPARγ2: promote the differentiation of brown adipocyte progenitor cells into brown adipocytes
CD34+ cells [2]
  brown adipocyte formation by light microscopy: promote brown adipocyte formation
CD34+ cells [3]
  agents identified by quantification of UCP1 protein by fluorescence IHC: identified using this technique

B1: BMP7: recombinant human BMP7 (rhBMP7), R&D Systems, reference agent (positive control) (protein, UniProt P18075 293-431, looked up)
Bone morphogenetic protein 7: STGSKQRSQNRSKTPKNQEALRMANVAENSSSDQRQACKKHELYVSFRDLGWQDWIIAPEGYAAYYCEGECAFPLNSYMNATNHAIVQTLVHFINPETVPKPCCAPTQLNAISVLYFDDSSNVILKKYRNMVVRACGCH
[1]; CD34+ cells, rosiglitazone 1 μM, BMP7 6 nM (most effective individual concentrations), day −3 to d0
  recruitment of brown adipocytes: robustly increase the recruitment of brown adipocytes
[1]; positive controls
  response of the UCP1/PPARγ2 RT-PCR assay to positive controls: appropriate dose-responsive behavior
CD34+ cells [2]
  brown adipocyte formation by light microscopy: promote brown adipocyte formation
